Assay results taken from PubChem BioAssay AID449764 (Southern Research Specialized Biocontainment Screening …, 2010).

Test system: Mycobacterium tuberculosis H37Rv growth inhibition, no glycerol
Test: Confirmatory growth inhibition assay, Mycobacterium tuberculosis H37Rv, absence of glycerol (AID 449764);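 further: growth read after 7 days of incubation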
Conditions: for IC90: measured here: IC90 growth inhibition

Cc1[nH]c2ccc(OC(F)(F)F)cc2c1CCNCc1ccc(Cl)cc1
IC50: 14.2 µM
IC90: 18.8 µM

C/C(O)=C\c1nc2ccccc2oc1=O
IC50: 0.75 µM
IC90: 0.89 µM

O=C(/C=C/c1ncc(C(F)(F)F)cc1Cl)OCc1ccccc1
IC50: 90.5 µM
IC90: > 100 µM

O=C(Oc1ccc2ccccc2c1)c1cncc(Br)c1
IC50: 55.3 µM
IC90: > 100 µM

CN(CC(=O)Nc1ccc(OC(F)(F)F)cc1)C(=O)/C=C/c1cc2c(cc1[N+](=O)[O-])OCO2
IC50: 34.5 µM
IC90: 40.5 µM

O=C1Nc2cc(C(=O)NCCCN3CCOCC3)ccc2S/C1=C/c1cccc(Cl)c1
IC50: 32.9 µM
IC90: 44.9 µM

COc1ccccc1C1CC(c2ccc(Cl)cc2)Nc2ncnn21 (configuration not stated)
IC50: 22.7 µM
IC90: 30.7 µM

O=C(Nc1cc(C(F)(F)F)ccc1-n1cncn1)c1ccc([N+](=O)[O-])o1
IC50: 37 µM
IC90: 54.2 µM

CC(C)(C)c1nn(-c2ccccc2)c2[nH]c(=O)c(CNCc3ccc4c(c3)OCO4)cc12
IC50: 20.8 µM
IC90: 34.4 µM

O=C(NCCN1CCN(c2cccc(Cl)c2)CC1)c1ccc(CSc2nc3ccncc3[nH]2)cc1
IC50: 21.8 µM
IC90: 32.1 µM

O=C(CCS(=O)(=O)c1ccc(F)cc1)Nc1nc(-c2ccccn2)cs1
IC50: 12.8 µM
IC90: 29.1 µM

Nc1cc([N+](=O)[O-])ccc1Nc1ccc(O)cc1
IC50: 30.6 µM
IC90: 36.6 µM

CN1C(=O)/C(=C/c2ccccc2Cl)Sc2ccc(C(=O)NCc3cccnc3)cc21
IC50: 50.6 µM
IC90: 89.8 µM

Cc1nn(-c2ccccc2)c(Cl)c1C(=O)Nc1nnc(C2CCCCC2)s1
IC90: > 50 µM

N#C/C(=C/c1ccc(Sc2nc3ccccc3[nH]2)o1)c1cccc(Br)c1
IC50: 57.9 µM
IC90: > 100 µM

O=C(Nc1cccnc1Cl)c1cc(-c2ccco2)on1
IC50: 38.4 µM
IC90: > 100 µM

O=C(/C=C\c1cccs1)N1CCN(Cc2ccc3c(c2)OCO3)CC1
IC50: 0.6 µM
IC90: 1.45 µM

CSc1nsc(SCC(=O)Nc2ccc(F)cc2F)n1
IC50: 88.7 µM
IC90: 98.9 µM

N=c1oc2cc(O)ccc2cc1C(=O)Nc1ccc(Br)cc1
IC50: 1.72 µM
IC90: 3.96 µM

CCCCCCCCNC(C)C(O)c1ccc(SC(C)C)cc1 (configuration not stated)
IC50: 25 µM
IC90: 26.5 µM

Cc1ccc(-c2ccc(C3C(C#N)=C(N)Oc4n[nH]c(C)c43)o2)cc1 (configuration not stated)
IC90: > 100 µM

Nc1c2c(nc3sc4c(c13)CCCCC4)CCCC2
IC50: 3.12 µM
IC90: 8.41 µM

c1ccc(CSc2ccc(-c3ccccn3)nn2)cc1
IC50: 89.4 µM
IC90: 94.2 µM

COc1cc(-c2ccc3oc(-c4ccsc4)cc(=O)c3c2)cc(OC)c1OC
IC50: 38.1 µM
IC90: 53.6 µM

CN(C)CCOc1ccc(-c2c(-c3ccsc3)sc3ccccc23)cc1
IC50: 15.4 µM
IC90: 21 µM

CCOC(=O)c1c(CC(C)C)csc1NC(=O)CCl
IC50: 2.66 µM
IC90: 11.2 µM

Cc1ccc2[nH]c3c(N4CCN(Cc5ccccc5)CC4)ncnc3c2c1
IC50: 25.1 µM
IC90: 46 µM

CC(C)(C)c1cc(-c2nc(N)nc(N)n2)c(O)c(C(C)(C)C)c1
IC50: 90.4 µM
IC90: 96 µM

CC1Cc2ccccc2N1C(=S)NC(=O)c1ccc(Cl)cc1Cl (configuration not stated)
IC50: 17 µM
IC90: > 100 µM

CN(C)CCCN(C(=O)c1ccc([N+](=O)[O-])s1)c1nc2cc3c(cc2s1)OCCO3
IC50: 35.8 µM
IC90: 62.2 µM

CCC1=C(OC(=O)N(CC)CC)N2C(=O)OC(=NCCc3c[nH]c4ccccc34)[C@]2(Cc2ccccc2)[C@H]2C1=CC[C@H]1C(=O)NC(=O)[C@H]12
IC50: 30.6 µM
IC90: 45.7 µM

CCn1c(C)c(C)c2cc(C(=O)Nc3cccc(Cl)c3)ccc21
IC50: 36.2 µM
IC90: > 100 µM

Brc1ccc(-c2nc3ncccn3c2Nc2ccc3c(c2)OCCO3)o1
IC50: 90.7 µM
IC90: > 100 µM

CCc1cc(C(=O)Nc2nc(-c3ccccn3)cs2)sc1C
IC50: 4.53 µM
IC90: 8.86 µM

O=C1C(SCCO)=C(SCCO)C(=O)c2ccccc21
IC50: 11.3 µM
IC90: 12 µM

Cc1cc(C)c(C(N)=O)c(SCC(=O)c2ccc(Cl)cc2)n1
IC50: 75.3 µM
IC90: > 100 µM

Clc1ccc(NNc2ccnc3cc(Cl)ccc23)cc1
IC50: 15.4 µM
IC90: 19.9 µM

c1nc2n(n1)C1=C(CCCC1)C1(CCCCC1)N2
IC50: 29.8 µM
IC90: 44.3 µM

CCCCn1nc(C(=O)Nc2ccccc2N2CCCC2)c2ccccc2c1=O
IC50: 81 µM
IC90: > 100 µM

O=C(CSc1nnc(-c2cccs2)o1)NCC1CN(Cc2ccccc2)CCO1 (configuration not stated)
IC50: 20.7 µM
IC90: 25.5 µM

Cc1ccc(CN2CCC(c3cc(-c4ccc(Cl)cc4)n[nH]3)CC2)cc1
IC50: 11.7 µM
IC90: 18.2 µM

CCOC(=O)C(/C=C(\C#N)C(=O)OCC)=C(/N)N1CCN(c2ccc(Cl)cc2)CC1
IC50: 11.9 µM
IC90: > 25 µM

CCN(Cc1ccncc1)Cc1nc(-c2ccc(C(=O)OC)cc2)no1
IC50: 34.2 µM
IC90: 53.6 µM

COc1ccc(C(C[N+](=O)[O-])c2c(-c3ccccc3)cc3ccccn23)c(OC)c1 (configuration not stated)
IC50: 45.7 µM
IC90: 51.8 µM

Nc1ccc(N=Nc2ccccc2)c2cccnc12
IC50: 34.7 µM
IC90: 64.2 µM

Cc1ccc(C)c(C2C(=O)c3ccccc3C2=O)c1
IC50: 16.5 µM
IC90: 46.8 µM

CCCCCc1ccc(-c2cn(Cc3cccc(OC)c3)nn2)cc1
IC50: 38.9 µM
IC90: > 100 µM

O=C(OCC(=O)N1CCN(C(=O)c2ccco2)CC1)c1cc(-c2cccc(Br)c2)nc2ccccc12
IC90: > 100 µM

Cc1ccc2cc(C)c(N3CCN(c4ccccn4)CC3)nc2c1
IC50: 43.1 µM
IC90: 46.7 µM

COc1ccc(Cc2nnc(SCC(=O)N(c3ccccc3)C(C)C)n(N)c2=O)cc1
IC50: 68 µM
IC90: 97.5 µM

O=C(Cc1ccccc1)N/N=C/c1ccc2cccc(O)c2n1
IC50: 11.3 µM
IC90: 12.6 µM

Cc1ccc(-c2csc3ncnc(Nc4ccc(N5CCOCC5)cc4)c23)cc1
IC50: 23.9 µM
IC90: 26.2 µM

CCOc1ccc(NC(=O)CSc2nc(O)c(C)c(=O)n2-c2ccc(F)cc2)cc1
IC50: 34.7 µM
IC90: 59.2 µM

CCOC(=O)COc1ccc(S(=O)(=O)NCCC2=CCCCC2)cc1
IC50: 22.7 µM
IC90: 25.9 µM

Cn1c(SCc2ccccc2)nc(N)c(N=O)c1=O
IC50: 18.4 µM
IC90: 25.6 µM

CN(Cc1ccc(Br)cc1)C(=O)CCN1C(=O)c2cccc([N+](=O)[O-])c2C1=O
IC50: 97.3 µM
IC90: > 100 µM

CC(C)(C)C(=O)NC(=S)NNC(=O)c1sc2ccccc2c1Cl
IC50: 43.9 µM
IC90: > 100 µM

CCn1c(=O)c(CCC(=O)N2CCN(c3ccccn3)CC2)c(C)c2c(C)nn(-c3cccc(C)c3)c21
IC50: 21.8 µM
IC90: > 100 µM

C=CCN(CC(=O)c1sc(C(=O)OCC)nc1C)c1cccc(Br)c1
IC50: 20.8 µM
IC90: 32.6 µM

O=[N+]([O-])c1cc(-c2ccc(/C=N\n3cnnc3)o2)cc([N+](=O)[O-])c1
IC50: 45.5 µM
IC90: 49.9 µM

CC(C)CNc1nnnc2c1sc1nc(N3CCOCC3)c3c(c12)CC(C)(C)SC3
IC90: > 100 µM

COC(=O)[C@H](CCSC)NC(=O)N1CCN(c2cccc(C(F)(F)F)c2)CC1
IC50: 29 µM
IC90: 58.8 µM

NC(=S)N=Nc1ccc(NN=C(N)N)cc1
IC50: 19.3 µM
IC90: 27.6 µM

O=C(Nc1ccc(N2CCN(C(=O)c3ccco3)CC2)cc1)C(c1ccccc1)c1ccccc1
IC50: 24.1 µM
IC90: 27.2 µM

O=C1NCC(c2ccccc2)C1C(=O)N/N=C\c1ccc(-c2ccc(Cl)c(Cl)c2)o1 (configuration not stated)
IC90: > 100 µM

CC1=C(/C=C/C(C)=C/C=C/C(C)=C/C(=O)Nc2ccc(O)cc2)C(C)(C)CCC1
IC50: 44.2 µM
IC90: 64.7 µM

COc1ccc(C2CC(=O)C3=C(C2)NC(C)=C(C#N)C3c2ccc(N(C)C)cc2)cc1 (configuration not stated)
IC50: 22.2 µM
IC90: 35.6 µM

Cc1ccc(NC(=O)CCl)cc1S(=O)(=O)N1CCCCCC1
IC50: 10.1 µM
IC90: 14.8 µM

Oc1cc(Nc2ccccc2)cc2cccnc12
IC50: 19.7 µM
IC90: 24.7 µM

CC[N+](C)(CC)CCCCOc1ccc2c(c1)C(=O)c1cc(OCCCC[N+](C)(CC)CC)ccc1-2
IC50: 1.68 µM
IC90: 2.11 µM

Cc1cccc(-c2ncc(CN3CCC(CO)(CCCc4ccccc4)CC3)cn2)c1
IC50: 48.5 µM
IC90: 55.1 µM

Cc1cc(C)c2cc(C(=O)Nc3ccc(C)c(F)c3)[nH]c2c1
IC50: 1.32 µM
IC90: 1.91 µM

O=C(Nc1ccc([N+](=O)[O-])cc1)Nc1ccc(OC(F)F)c(Cl)c1
IC50: 2.5 µM
IC90: 3.63 µM

COC(=O)c1ccc(NC(=O)CSc2nc3ccc(N4C(=O)C5C6C=CC(C6)C5C4=O)cc3s2)cc1 (configuration not stated)
IC50: 4.89 µM
IC90: 6.03 µM

CC(Oc1ccc2ccccc2c1)C(=O)NNC(=S)NC(=O)c1ccco1 (configuration not stated)
IC50: 22.4 µM
IC90: 31.9 µM

CCCCS(=O)(=O)/C=C\C=C/S(=O)(=O)CCCC
IC50: 2.24 µM
IC90: 2.92 µM

CC(C)C(=O)N1CCC2(CC1)Oc1ccc(Cl)cc1C(=O)C21CC(c2ccccc2)=NO1 (configuration not stated)
IC50: 59.4 µM
IC90: > 100 µM

CN(CC(=O)Nc1ccccc1Br)C(=O)c1cccnc1Nc1cccc(C(F)(F)F)c1
IC50: 35 µM
IC90: 48.7 µM

Cc1cc(N/N=C/c2ccccc2[N+](=O)[O-])nc(-n2nc(C)cc2C)n1
IC50: 3.42 µM
IC90: 5.14 µM

Cc1cccc(/C=C/C(=O)c2ccc([N+](=O)[O-])o2)c1
IC50: < 0.2 µM
IC90: < 0.2 µM

CCc1ccc(-c2nn(-c3ccccc3)cc2CSC(=N)N)cc1
IC50: 16.5 µM
IC90: 20.4 µM

Cc1nn(-c2ccccc2)c(N)c1C(c1ccc(C(C)C)cc1)c1c(C)nn(-c2ccccc2)c1N
IC50: 22.9 µM
IC90: 25.8 µM

Oc1ccc2ccccc2c1N=Nc1nccs1
IC50: 1.96 µM
IC90: 3.06 µM

CC(=O)OC1=Cc2c(ccc3ccc(=O)oc23)OC1(C)C
IC50: 47.9 µM
IC90: > 100 µM

O=C1C2C(c3ccccc3)(C(=O)N1c1ccc(Cl)cc1)C2(c1ccccc1)c1ccccc1 (configuration not stated)
IC50: 11.6 µM
IC90: 13.6 µM

Cc1cc2[nH]c3c(c[n+](C)c4ccccc34)c2cc1C
IC50: 9.9 µM
IC90: 15.6 µM

COc1ccc(-c2cc3c(=O)n(CC(=O)NCCCN4CCC(Cc5ccccc5)CC4)ncn3n2)cc1
IC50: 28.1 µM
IC90: 39.7 µM

O=c1c2ccccc2nc(/C=C/c2ccccc2)n1-c1ccc(O)cc1
IC90: > 50 µM

COC(=O)c1cc(-c2cccc(OC)c2)on1
IC50: 10.5 µM
IC90: > 100 µM
